The data set is described as follows: Complex solubility in acetonitrile with 0.1 M tetrabutylammonium hexafluorophosphate. It counts as physicochemical. Conditions: room temperature. An excerpt: FIG. 8 is a graph depicting the complex solubility in acetonitrile with 0.1 M tetrabutylammonium hexafluorophosphate.

Regarding `CCC(CC[N-]C(=O)c1ccccn1)[N-]C(=O)c1ccccn1.[Ni+2]` (stereo not shown) [Ni((Etbppn)], the maximum solubility came out at 15 mM.
